Results from patent US9006439B2, “Camptothecin derivatives having anti-tumor activity” (priority 2011, dated 2015).
Like-named read-outs stand apart in the source and are kept apart here. Marks after values point to notes of the source that are not given here.

Assays:
[1] = test system: A549 (non-small cell lung cancer) cells; assay: MTT in vitro cytotoxicity, A549; format: cell-based, human; settings: read-out: Concentration to inhibit 50% cell growth (IC50 nM ± SD), A549
Protocol: (§1) In vitro cytotoxicity was measured with MTT. Cell suspension was prepared using cells in good condition and seeded at 200 μl/well on a 96 well plate before culturing for 24 hours in a temperature-controlled CO2 incubator. The test drug was added at 20 μl/well and cultured for 48 hours. MTT was added to the 96 well plate at 20 ul/well and allowed to react for 4 hours in the incubator. The supernatant was removed and DMSO was added at 20 μl/well. Cytotoxicity was determined by the absorbance measured by Enzyme-linked immunosorbent assay at a wavelength of 570 nm.

[2] = test system: HT-29 (colon cancer) cells; assay: MTT in vitro cytotoxicity, HT-29; format: cell-based, human; settings: read-out: Concentration to inhibit 50% cell growth (IC50 nM ± SD), HT-29
Protocol: as §1

[3] = test system: OV-3 (ovarian cancer) cells; assay: MTT in vitro cytotoxicity, OV-3; format: cell-based, human; settings: read-out: Concentration to inhibit 50% cell growth (IC50 nM ± SD), OV-3
Protocol: as §1

U87 (glioma) cells = assay: MTT in vitro cytotoxicity, U87; format: cell-based, human; settings: read-out: Concentration to inhibit 50% cell growth (IC50 nM ± SD), U87
Protocol: as §1

[4] = test system: BX-PC3 (pancreatic cancer) cells; assay: MTT in vitro cytotoxicity, BX-PC3; format: cell-based, human; settings: read-out: Concentration to inhibit 50% cell growth (IC50 nM ± SD), BX-PC3
Protocol: as §1

[5] = test system: U87, BX-PC3, HT-29, OV-3 and A549 cell lines; assay: MTT in vitro cytotoxicity, five cell lines together (mean / overall); settings: for in vitro activity / cytotoxicity (in words): MTT, A549, HT-29, OV-3, U87, BX-PC3
Protocol: as §1

[6] = test system: MX-1 human breast cancer xenograft; assay: Therapeutic effect on nude mouse with MX-1 xenograft; format: in vivo; settings: for Tumor disappear: animals with tumor not detectable visually, observed for 60 days; for Tumor disappear / Maximum change in weight (%): iv; for T.S. (mm3) D 16: tumor size 16 days after treatment, iv tail vein; for T.S. (mm3) D 16 / T.S. (mm3) D 0: MX-1; for T.S. (mm3) D 0: tumor size at day 0 (baseline)
Protocol: (§2) Methods: female nude mice were used for the experiments. Transplantation of tumors: Actively growing tumor tissues were cut into small pieces with sterilized scissors and each mouse was inoculated with 50 mg of the tumor tissue. Treatment began on days 6-10 after tumor transplantation when the weight of the tumor was around 300 mg. The nude mice were weighed and the tumor size was measured every other day. Transplanted tumors: human breast cancer (MX-1), human non-small cell lung cancer (A549), human ovarian carcinoma (SK-0V3), human colon carcinoma (HT29), human pancreatic cancer (BX-PC-3).
B: Tumor disappearance: tumor could not be detected visually 60 days after the experiment

[7] = test system: SK-OV3 human ovarian carcinoma xenograft; assay: Therapeutic effect on nude mice with SK-OV3 xenograft; format: in vivo; parameters: Tumor inhibition: unit not given here; settings: for Tumor inhibition: 16 days after treatment; for Tumor inhibition / Maximum change in weight (%): iv; for Tumor inhibition / T.S. (mm3) D 16 / T.S. (mm3) D 0: SK-OV3; for T.S. (mm3) D 16: tumor size 16 days after treatment, iv tail vein; for T.S. (mm3) D 0: tumor size at day 0 (baseline)
Protocol: as §2

[8] = test system: intra-cerebrally transplanted U87 human glioma brain tumor; assay: Therapeutic effect on intra-cerebrally transplanted U87 brain tumor; format: in vivo, mice
Text: Methods: female nude mice were used for the experiments.
Dosing regimen: once every two days, a total of four times; route of administration: intravenous injection at the tail vein. Mice died from brain tumor after inoculation with 2×10^5 cells. #: Comparing CPT1 with irinotecan and gimatecan.

[9] = Determination of equitoxic dose (maximum tolerated dose); format: in vivo, nude mice; settings: q2dx4, decrease in weight of around 15%; for MTD: nude, mouse, in vivo, intravenous, read-out: Experimentally determined dosage at the same level of toxicity (maximum tolerated dose)
Protocol: (§3) CP1 had better solubility and stability than CPT2-10.
Dosing regimen: once every two days, a total of four times; route of administration: intravenous injection at the tail vein. # At 16 days after treatment. […] The doses used were those that were determined experimentally to cause the same toxicity of weight decrease by 12-15%. T.S: tumor size

[10] = Solubility and stability comparison; format: physicochemical
Text: as §3

[11] = test system: a variety of transplanted tumors; settings: at maximum tolerated dose
Protocol: as §2

[12] = MTT, drug cultured 48 hours, A549
[13] = MTT, drug cultured 48 hours, HT-29
[14] = MTT, drug cultured 48 hours, OV-3
[15] = MTT, drug cultured 48 hours, U87
[16] = MTT, drug cultured 48 hours, BX-PC3
[17] = read-out: Concentration to inhibit 50% cell growth, mean (average concentration), mean over U87, BX-PC3, HT-29, OV-3, A549
[18] = once every two days, four times
[19] = inoculation with 2×10^5 U87 cells intra-cerebrally, iv, once every two days, four times
[20] = MX-1 nude mouse, once every two days, four times
[21] = SK-OV3 nude mice, once every two days, four times

Compound	IC50 [1, 12] [nM]	IC50 [2, 13] [nM]	IC50 [3, 14] [nM]	IC50 (U87 (glioma) cells; [15]) [nM]	IC50 [4, 16] [nM]	IC50 [5, 17] [nM]	in vitro activity / cytotoxicity (in words) [5]	Tumor disappear [6, 18]	T.S. (mm3) D 16 [6, 18] [mm3]	T.S. (mm3) D 0 [6] [mm3]	Tumor inhibition [7, 18]	T.S. (mm3) D 16 [7, 18] [mm3]	T.S. (mm3) D 0 [7] [mm3]	other results
9-t-butyloxyethyloxime-10-hydroxy-camptothecin [CPT2]	14.1 ± 1.2	7.1 ± 1.6	16.1 ± 2.5	2.9 ± 1.1	5.1 ± 2	9.1	–	–	–	–	–	–	–	–
CCC1(O)C(=O)OCc2c1cc1n(c2=O)Cc2cc3c(CC=NOC(C)(C)C)c(OC(=O)N4CCC(N5CCCCC5)CC4)ccc3nc2-1 (stereo not shown) [CPT1, 9-t-butyloxyethyloxime-10-[(4′-piperidinylpiperidinyl)carbonyloxy]-camptothecin]	–	–	–	–	–	–	do not have significant activities in vitro	6/6	0	356 ± 51	80.4	358 ± 34	236 ± 34	Maximum change in weight (%) ([6]; mouse, in vivo): −13%; Maximum change in weight (%) ([7]; mouse, in vivo): −12%; Survival time compared with irinotecan and gimatecan ([8]; P<0.05): increased significantly; Average survival time (days) [8, 19]: 26.4 ± 1.2# days; Experimentally determined dosage at the same level of toxicity (maximum tolerated dose) [9]: 55 mg/kg; Solubility compared with CPT2-10 [10]: better; Stability compared with CPT2-10 [10]: better; Therapeutic effect against transplanted tumors (in words) [11]: good therapeutic effect
CCC1(O)C(=O)OCc2c1cc1n(c2=O)Cc2cc3c(CC=NOC(C)(C)C)c(F)ccc3nc2-1 (stereo not shown) [CPT3, 9-t-butyloxyethyloxime-10-fluoro-camptothecin]	11.2 ± 1	9.1 ± 3.2	10.1 ± 2.1	2.1 ± 1	3.1 ± 1.5	7.1	significant cytotoxicity	–	–	–	–	–	–	–
CCC1(O)C(=O)OCc2c1cc1n(c2=O)Cc2cc3c(CC=NOC(C)(C)C)c(OC(=O)C(N)Cc4ccccc4)ccc3nc2-1 (stereo not shown) [CPT4, 9-t-butyloxyethyloxime-10-phenylalanine-carbonyloxy-camptothecin]	–	–	–	–	–	–	do not have significant activities in vitro	–	–	–	–	–	–	–
CCC1(O)C(=O)OCc2c1cc1n(c2=O)Cc2cc3c(CC=NOC(C)(C)C)cccc3nc2-1 (stereo not shown) [CPT7, 9-t-butyloxyethyloxime-camptothecin]	5.5 ± 0.8	3.1 ± 1	4.1 ± 0.4	1.5 ± 0.3	2.1 ± 1.2	3.3	significant cytotoxicity	–	–	–	–	–	–	–
CCC1(O)C(=O)OCc2c1cc1n(c2=O)Cc2cc3c(CC=NOC(C)(C)C)c(OC(C)=O)ccc3nc2-1 (stereo not shown) [CPT8]	19.3 ± 2.2	11.1 ± 1.8	23.1 ± 3.1	4.1 ± 1.7	7.1 ± 2.1	12.9	significant cytotoxicity	–	–	–	–	–	–	–
CCC1(OC(=O)C(N)Cc2ccccc2)C(=O)OCc2c1cc1n(c2=O)Cc2cc3c(CC=NOC(C)(C)C)c(OC(=O)N4CCC(N5CCCCC5)CC4)ccc3nc2-1 (stereo not shown) [CPT9, 9-t-butyloxyethyloxime-10-[(4′-piperidinylpiperidinyl)carbonyloxy]-20-phenylalanine carbonyloxy-camptothecin]	–	–	–	–	–	–	do not have significant activities in vitro	–	–	–	–	–	–	–
CC[C@@]1(O)C(=O)OCc2c1cc1n(c2=O)Cc2c-1nc1ccccc1c2/C=N/OC(C)(C)C [Gimatecan]	–	–	–	–	–	–	–	6/6	0	328 ± 65	68.4	578 ± 61	203 ± 33	IC50 ([1]; Homo sapiens, A549, 48 h): 4.7 ± 0.2 nM; IC50 ([2]; Homo sapiens, HT-29, 48 h): 3.6 ± 0.3 nM; IC50 ([3]; Homo sapiens, 48 h): 3.1 ± 2.2 nM; IC50 (U87 (glioma) cells; Homo sapiens, U-87 MG, 48 h): 0.6 ± 0.2 nM; IC50 ([4]; Homo sapiens, BXPC-3, 48 h): 1.5 ± 0.8 nM; IC50 ([5]; Homo sapiens, read-out: Concentration to inhibit 50% cell growth, mean (average concentration), mean over U87, BX-PC3, HT-29, OV-3, A549): 2.7 nM; Maximum change in weight (%) [6, 20]: −13%; Maximum change in weight (%) [7, 21]: −12%; Average survival time [8, 19]: 23.1 ± 1.6 days; MTD [9]: 1 mg/kg
CCc1c2c(nc3ccc(OC(=O)N4CCC(N5CCCCC5)CC4)cc13)-c1cc3c(c(=O)n1C2)COC(=O)[C@]3(O)CC [Irinotecan]	–	–	–	–	–	–	–	6/6	0	361 ± 54	75.3	451 ± 56	214 ± 26	Maximum change in weight (%) [6, 20]: −12%; Maximum change in weight (%) [7, 21]: −13%; Average survival time [8, 19]: 22.8 ± 1.4 days; MTD [9]: 55 mg/kg
CCc1c2c(nc3ccc(O)cc13)-c1cc3c(c(=O)n1C2)COC(=O)[C@]3(O)CC [SN38]	16.6 ± 1.9	8.7 ± 1.2	17.1 ± 3.2	3.1 ± 1.1	6.8 ± 2.6	10.5	–	–	–	–	–	–	–	–
CC[C@@]1(O)C(=O)OCc2c1cc1n(c2=O)Cc2cc3c(CN(C)C)c(O)ccc3nc2-1 [Topotecan]	–	–	–	–	–	19.7	–	2/6	124 ± 12	323 ± 47	18.9	1478 ± 226	223 ± 43	IC50 ([1]; Homo sapiens, A549, 48 h): 28.5 ± 3.9 nM; IC50 ([2]; Homo sapiens, HT-29, 48 h): 17.3 ± 4.2 nM; IC50 ([3]; Homo sapiens, 48 h): 21.1 ± 2.6 nM; IC50 (U87 (glioma) cells; Homo sapiens, U-87 MG, 48 h): 12.5 ± 3.2 nM; IC50 ([4]; Homo sapiens, BXPC-3, 48 h): 19.1 ± 3.7 nM; Maximum change in weight (%) [6, 20]: −14%; Maximum change in weight (%) [7, 21]: −12%; MTD [9]: 12 mg/kg
